From patent US7612086B2, “JNK inhibitors” (Eisai R & D Management Co. Ltd., priority 2003, dated 2009)

target: JNK3 kinase (Homo sapiens, UniProt P53779); test: JNK3 SPA assay (phosphorylation of GST-c-Jun); type: biochemical; conditions: 3.33 μM ATP, [γ-33P] ATP, GST-c-Jun substrate, 30 minutes at room temperature
Procedure: JNK1, JNK2, JNK3—SPA Assay
• 1. Compound is dissolved in DMSO to a convenient concentration and this is diluted in 10% DMSO to a five times concentrate of the desired starting concentration (frequently 1:100). • 2. 10 μl of 500 mM EDTA is added to alternative wells of the Opti-plate row, which will receive kinase reaction plus DMSO. This creates the negative control. • 3. For the JNK2 and JNK3 assay, compounds are prepared in six 2-fold dilutions with water and each concentration is tested in duplicate. For the JNK1 assay compounds are prepared in four 5-fold dilutions with water which are tested in triplicate. Controls are treated identically. • 4. 20 μl per well of each compound concentration is transferred to an Opti-plate, in duplicate. • 5. 30 μl (JNK2/3 SPA) or 50 μl (JNK1 SPA) of substrate solution (25 mM HEPES pH 7.5, 10 mM magnesium acetate with 3.33 μM ATP (JNK2/3) or 2 μM ATP (JNK1), approximately 7.5 kBq [γ-^33P] ATP, GST-c-Jun, in water) is added to each well. • 6. 50 μl (JNK2/3 SPA) or 30 μl (JNK1 SPA) of kinase solution (JNK in 25 mM HEPES pH 7.5, 10 mM Mg Acetate) is added to each well.
• 7. The plate is incubated for 30 minutes at room temperature. • 8. 100 μl of bead/stop solution is added to each well (5 mg/ml glutathione-PVT-SPA beads, 40 mM ATP in PBS). • 9. Plates are sealed and incubated for 30 minutes at room temperature, centrifuged for 10 minutes at 2500 g and counted. • 10. The IC50 values are calculated as the concentration of the compound being tested at which the phosphorylation of c-Jun is decreased to 50% of the control value.

Chain of JNK3 kinase (P53779 whole entry): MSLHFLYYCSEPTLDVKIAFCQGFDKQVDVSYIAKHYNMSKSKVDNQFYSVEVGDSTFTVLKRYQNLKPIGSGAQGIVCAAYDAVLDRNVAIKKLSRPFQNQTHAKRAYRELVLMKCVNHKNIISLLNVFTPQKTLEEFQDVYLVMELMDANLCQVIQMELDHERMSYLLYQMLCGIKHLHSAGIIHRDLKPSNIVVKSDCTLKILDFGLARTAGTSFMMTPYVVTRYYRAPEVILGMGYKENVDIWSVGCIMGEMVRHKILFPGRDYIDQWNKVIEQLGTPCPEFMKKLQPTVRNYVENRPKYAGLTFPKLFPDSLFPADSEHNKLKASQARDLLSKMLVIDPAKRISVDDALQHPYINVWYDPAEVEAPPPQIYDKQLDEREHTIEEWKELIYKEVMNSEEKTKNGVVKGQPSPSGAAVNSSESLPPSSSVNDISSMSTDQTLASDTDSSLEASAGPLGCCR

IC50, < 500 nM:
N#Cc1c[nH]c2ncc(-c3ccccc3F)cc12, C#Cc1c[nH]c2ncc(-c3ccc(N(C)C)cc3)cc12, CN(C)c1ccc(-c2cnc3[nH]cc(C#N)c3c2)cc1, CCCNC(=O)C#Cc1c[nH]c2ncc(-c3ccccc3Oc3ccccc3)cc12
